Results reported in US7335686B2, “Method and composition for treating osteoporosis” (Council of Scientific and Industrial Research, priority 2003, dated 2008).

System: osteoclast precursors (murine bone marrow cells)
Assay: In vitro osteoclastogenesis assay (M-CSF + RANKL, TRAP staining)
Format: cell-based, Balb/c mice
Conditions: M-CSF and RANKL, TRAP-positive osteoclasts
Procedure: Mice were sacrificed by cervical dislocation and femora and tibiae were aseptically removed and dissected free of adherent soft tissues. The bone ends were cut, and the marrow cavity was flushed out with medium MEM from one end of the bone using a sterile 21-gauge needle. The bone marrow suspension was carefully agitated with a plastic Pasteur pipette to obtain a single-cell suspension. The cells were washed twice and resuspended (10^6 cells/ml) in αMEM containing 10% FBS. […] After 24 h, nonadherent cells were harvested and layered on a Ficoll-Hypaque gradient. Cells at the gradient interface were collected, washed and resuspended (5×10^5/ml) in αMEM containing 10% FBS. In this study, we called these stromal cell-free, M-CSF-dependent, nonadherent cells as osteoclast precursors. These osteoclast precursors were added to 96-well plates (100 μl/well) containing plastic coverslips. […] Cultures were fed every 2-3 days and after incubation for 6 days osteoclast formation was evaluated by tartrate-resistant acid phosphatase (TRAP) staining. The number of TRAP-positive multinucleated cells (MNCs) containing 3 or more nuclei was scored.
TRAP is preferentially expressed at high levels in osteoclast and is considered, especially in the mouse, to be an osteoclast marker. […] Only those cells that were strongly TRAP-positive (dark red) counted by light microscopy.

Compound	Effect on RANKL-induced osteoclast formation/differentiation (in words)
O=C([O-])CC[C@H](NS(=O)(=O)[O-])C(=O)[O-].O=C([O-])CC[C@H](NS(=O)(=O)[O-])C(=O)[O-].[Ca+2].[Ca+2].[Ca+2] [compound 1, L-glutamyl-N-sulphonic acid, Ca salt]	dose dependent inhibition
O=C(O)C[C@H](NS(=O)(=O)O)C(=O)O [example 3, L-aspartyl, N-sulfonic acid]	significantly inhibited osteoclast formation
